Assay [1] has as its system HeLa cells. The assay can be described thus: AP site measurement in genomic DNA. As to conditions: for AP site levels, combination treatment versus MMS-alone / AP sites upon treatment with the inhibitor alone: 24 h; for AP site levels, combination treatment versus MMS-alone / AP site levels, combination versus MMS-alone, repeat testing: 275 µM MMS plus inhibitor; for AP site levels, combination treatment versus MMS-alone: initial test (Figure 8); for AP site levels, combination versus MMS-alone, repeat testing: repeat test (Figure S1); for AP sites upon treatment with the inhibitor alone: inhibitor alone vs vehicle. Type of assay: cell-based, human. As for the experimental part:
HeLa cells at 80% confluency (6×10^5 cells) were subjected to the following treatments in a 6-well plate for 24 hours at 37°C: 1) DMSO alone, 2) 275 µM MMS, 3) APE1 inhibitors dissolved in DMSO (5–20 µM final compound concentration), and 4) the inhibitors as in treatment 3 in combination with 275 µM MMS. Cells were then harvested and processed using a Qiagen Genomic DNA isolation kit (Germantown, MD). After DNA quantitation, AP sites were measured using the DNA Damage Quantification kit from Dojindo Molecular Technologies (Rockville, MD).
As stated above, the application of the genotoxic agent MMS results in an increase in the level of AP sites within the genome. An effective APE1-targeted inhibitor applied under the conditions of increased genotoxic stress is expected to interfere with the repair of AP sites, while ideally having no effect on the AP site levels when applied as a single agent. Thus, the net effect of treating cells with a combination of MMS and inhibitor would be an increase in the number of AP site lesions. To determine the effect on AP site accumulation caused by treatment with MMS in combination with an APE1 inhibitor, as compared to treatment with MMS or inhibitor alone, we measured AP site levels in the chromosomal DNA from HeLa cells using an aldehyde-reactive probe-based colorimetric assay. The concentrations of MMS and inhibitor (275 µM for MMS and between […] for the inhibitor, respectively) were selected to fall below the onset of cytotoxicity for each agent based on the analysis of the MMS potentiation data shown in Figure 5.

Assay [2] has as its target T1, APE1 (Homo sapiens, UniProt P27695).
T1 construct: made in house
Put plainly: Gel-based radiotracer (32P) APE1 incision assay.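 Note: APE1 incision reactions ran 5 min at 37 °C, with cleaved product and intact substrate resolved electrophoretically.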 Type of assay: biochemical. Also on record: concentration or dose not given beside the values. The settings on record: percent incision shown; entries 1-112.

For assay [3], the system named is HeLa cells. The assay can be described thus: MMS potentiation assay (CellTiter Glo viability). Type of assay: cell-based, human. Also on record: key: N.A., no activity observed; P, positive; I, inconclusive; N.T., not tested. As to conditions: for MMS Assay: potentiation of the genotoxic effect of methylmethane sulfonate. Here is the method: HeLa cells were plated at 6000 cells/well in DMEM culture medium containing 10% FBS into white solid bottom 384-well cell culture plates. The plates were incubated at 37°C overnight for cell attachment, followed by media replacement. The fresh medium contained serial dilutions of compounds of interest in the presence (0.4 mM final) or absence of MMS. The plates were incubated for 24 h at 37°C. Cell viability was determined by luminescence detection after an addition of 15 µL of CellTiter Glo reagent (Promega, Madison, WI). Percent viability was calculated for each concentration of compound tested in duplicate by relating the corresponding luminescence to that of a negative DMSO vehicle control. MMS potentiation trends were defined as follows: negative (-), if cell viability in the compound-plus-MMS treatment was the same as that of the DMSO-plus-MMS control (overlapping dose-response curves); inconclusive (I), if the shift in the cell viability dose-response upon MMS inclusion relative to compound-alone was less than 30%; and positive (P), if the difference between the compound-plus-MMS and compound-alone curves was at least 30%, and maintained within at least a two-fold compound concentration span.
To examine the biological prospects of the top compounds, we tested their ability to inhibit APE1 DNA repair activity by assessing enhancement of MMS toxicity in mammalian cells. MMS creates methylated-base damage to genomic DNA, which, when excised by an alkylpurine DNA glycosylase, results in a high number of cytotoxic AP sites. We compared the viability of HeLa cells exposed to a dilution series of inhibitor alone to a combination of a fixed MMS concentration with the same dilution series of inhibitor by using a standard CellTiter Glo luminescence assay. This technique measures the number of viable cells in culture based on quantitation of the ATP present, which signals the presence of metabolically active cells. The assay was further optimized for 384-well plates, allowing a high-throughput testing of multiple hits at multiple concentrations, a scope of investigation previously impossible due to the very low throughput of the traditionally applied colony formation assay.
From the 223 compounds found positive in the gel-based APE1 assays, exclusion of the most promiscuous hits, that is, those that were both DNA binders and EndoIV-inhibitory, yielded a set of 170 compounds (Figure 3). This shortened group of hits was tested in the cell-based potentiation assay for their ability to dose-dependently enhance sensitivity of HeLa cells to the alkylating agent MMS.
For orientation: Cellular ATP, detected with luciferase, serves as a proxy for viable cell number.

Assay [4] concerns the target double-stranded 17-mer DNA fragment. Put plainly: ThO (Thiazole Orange) DNA displacement assay.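 Note: miniaturized displacement of the intercalating dye from unlabeled duplex DNA, used to flag nonspecific DNA binders, chiefly intercalators, groove binders may be missed.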 Type of assay: binding. The settings on record: read-out: ThO-DNA binding IC50.
The next assay has as its target T2, E. coli Endo IV (Escherichia coli, UniProt P0A6C1).
T2 construct: made in house
Put plainly: E. coli Endo IV profiling counterscreen.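 Note: selectivity counterscreen of candidate APE1 inhibitors against the bacterial endonuclease Endo IV, run in the same assay format as the primary APE1 high-throughput screen.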 In kind it is biochemical. On the technique in general: Counterscreens check selectivity or assay interference.

For assay [5], the system named is human immunodeficiency virus integrase. Also on record: method as in PMID 9865384. The settings on record: cited from earlier work.
The target in assay [6] is T1, APE1. The assay can be described thus: Fluorogenic kinetic qHTS APE1 incision assay (primary screen and retest of cherrypicked samples).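 Note: purified APE1 cleaving a fluorophore/dark-quencher labelled 17-mer duplex DNA bearing a tetrahydrofuran AP site, fluorescence rise followed kinetically over the first 2 min, inhibition normalized to controls.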 Type of assay: biochemical.
Assay [7] addresses T1, APE1. The assay can be described thus: Fluorescence polarization (FP) displacement assay of APE1 binding to AP-DNA probe.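 Note: TAMRA 5′-labeled duplex DNA with THF abasic site (5 nM) and APE1 (20 nM), Mg2+-free buffer, 15 min at room temperature, inhibition seen as lowered polarization.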
In assay [8] the test system is histone acetyltransferase (HAT) p300. Also on record: method as in PMID 20534345, PMID 21764752. As to conditions: cited from earlier work.
For assay [9], the target named is T1, APE1. The assay can be described thus: Gel-based APE1 incision assay with fluorescence (TAMRA) detection. In kind it is biochemical.
The next assay relates to tubulin. Also on record: method as in PMID 20657644. As to conditions: cited from earlier work.
Setting [10] is: initial quantitative high-throughput screen, read-out: APE1 qHTS IC50.
[11] abbreviates: retest of cherrypicked sample, read-out: APE1 Retest IC50.
Setting [12] is: estimated IC50, fluorophore detection, entries 113-223, read-out: F-PAGE Assay IC50.
Setting [13] is: initial qHTS, 7-point titration, read-out: qHTS, IC50 obtained in the initial quantitative high-throughput screen.

pIC50: −log10 of the molar value. Where two headings read alike, the source gives them in different places.

We go through nine compounds from publication PMC3479139, “Diverse Small Molecule Inhibitors of Human Apurinic/Apyrimidinic Endonuclease APE1 Identified from a Screen of a Large Public Collection” (PLoS ONE, 2012).

T1 sequence (P27695 whole entry): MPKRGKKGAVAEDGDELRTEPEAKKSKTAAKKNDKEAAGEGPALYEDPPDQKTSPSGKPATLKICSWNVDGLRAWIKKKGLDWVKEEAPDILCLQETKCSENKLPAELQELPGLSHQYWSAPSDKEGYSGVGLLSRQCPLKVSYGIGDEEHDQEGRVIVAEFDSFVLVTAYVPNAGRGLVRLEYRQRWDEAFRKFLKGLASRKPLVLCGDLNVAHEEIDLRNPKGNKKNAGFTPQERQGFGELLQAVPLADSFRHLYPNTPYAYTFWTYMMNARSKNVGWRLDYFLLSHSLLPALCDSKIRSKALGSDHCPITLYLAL
Text for E. coli Endo IV: In order to screen out nonselective compounds, such as non-specific DNA binders and inhibitors of related enzymes, we used a miniaturized ThO DNA displacement assay and a counterscreen against the bacterial endonuclease E. coli Endo IV, respectively, following the previously published protocols [21].
To probe the selectivity of the candidate APE1 inhibitors, we tested them against E. coli EndoIV [36], employing the same assay as used in the HTS.

On to `O=c1oc2c(cc1O)oc(=O)c1cc(O)c(O)c(O)c12` [MLS000737267, galloflavin], for which the “AP site levels, combination treatment versus MMS-alone” value in the assay on HeLa cells [1] was “no statistical significance”. In addition, the “Radiotracer Assay (%Activity)” value at APE1 [2] stood at 46%. The “MMS Assay” value in the assay on HeLa cells [3] was “P”. Also, the pIC50 was 5.20 in assay [4]; < 4.24 on E. coli Endo IV (read-out: EndoIV IC50); 6.40 at APE1 [6] (setting [10]); 6.89 at APE1 [6] (setting [11]); < 4.24 on APE1 [7] (read-out: FP IC50). Further, the “HIV integrase IC50” value in assay [5] is listed as “low-micromolar”.

Regarding `O=C1NC(=O)N(Cc2ccco2)C(=O)C1=CC=Cc1ccco1` [MLS000587064], in the assay with HeLa cells [1], the “AP site levels, combination versus MMS-alone, repeat testing” value was “support the initially-observed enhancements”. Besides, the “AP site levels, combination treatment versus MMS-alone” value in the assay on HeLa cells [1] is given as “obscured by large standard deviations”. On APE1 [2], the “Radiotracer Assay (%Activity)” value is 14%. The “MMS Assay” value in the assay on HeLa cells [3] was “P”. For the same compound, the pIC50 in assay [4] was < 4.24; on E. coli Endo IV, < 4.24; at APE1 [6] (APE1 Retest IC50, retest of cherrypicked sample), 5.30; on APE1 [6] (APE1 qHTS IC50, initial quantitative high-throughput screen), 5.55; at APE1 [7], < 4.24.

With `CCOC(=O)c1cc(-c2ccc(/C=C3/C(=O)N(c4ccc(C(=O)O)cc4)N=C3C)o2)ccc1Cl` [MLS001196838], the “AP sites upon treatment with the inhibitor alone” value in the assay with HeLa cells [1] is on record as “noticeable increase in AP sites”. In addition, the “MMS Assay” value with HeLa cells [3] is on record as “P”. The pIC50 in [4] is 4.79; at E. coli Endo IV (read-out: EndoIV IC50), < 4.24; on APE1 [6] (setting [10]), 5.08; at APE1 [6] (setting [11]) it was 4.59; on APE1 [9] (setting [12]) it was 5.10; at APE1 [7] (read-out: FP IC50), < 4.24. For the same compound, the “Inhibition of HAT p300” value in assay [8] was “potent and selective inhibitor”.

Take `COc1ccc2c(c1)c(=O)oc1cc(OCC(=O)N3CCc4ccccc4C3)ccc12` [MLS000594187]: in the assay with HeLa cells [1], the “AP site levels, combination treatment versus MMS-alone” value was “no statistical significance”. For the same compound, at APE1 [2], the “Radiotracer Assay (%Activity)” value came out at 51%. Besides, the “MMS Assay” value in the assay on HeLa cells [3] is on record as “P”. Further, the pIC50 is < 4.24 in assay [4]; < 4.24 at E. coli Endo IV (read-out: EndoIV IC50); 5.00 at APE1 [6] (setting [10]); 5.41 at APE1 [6] (setting [11]); < 4.24 on APE1 [7] (read-out: FP IC50).

Regarding `Cc1c(C(=O)OCC2CCCO2)[nH]c2c1C(=O)CC(c1ccco1)C2` (stereo not drawn) [MLS000090966], the “AP site levels, combination treatment versus MMS-alone” value in the assay with HeLa cells [1] is “obscured by large standard deviations”. For the same compound, the “Radiotracer Assay (%Activity)” value at APE1 [2] worked out at 37%. In the assay with HeLa cells [3], the “MMS Assay” value was “P”. Further, the pIC50 in [4] was < 4.24; at E. coli Endo IV (read-out: EndoIV IC50), < 4.24; at APE1 [6] (setting [13]), 5.15; on APE1 [6] (setting [10]) it was 5.15; on APE1 [6] (setting [11]), 5.35; on APE1 [7] (read-out: FP IC50), 4.80. The “Inhibition of tubulin assembly” value in the assay with tubulin is “effective inhibitor”.

Consider `CC1CCN(C2=NN3C(=N)/C(=C\c4ccc(OC(=O)c5ccco5)cc4)C(=O)N=C3S2)CC1` [MLS001076862], for which the “AP site levels, combination treatment versus MMS-alone” value with HeLa cells [1] is given as “no statistical significance”. Moreover, the “AP sites upon treatment with the inhibitor alone” value in the assay with HeLa cells [1] is recorded as “noticeable increase in AP sites”. In the assay on HeLa cells [3], the “MMS Assay” value is reported as “P”. Further, the pIC50 in [4] is < 4.24; on E. coli Endo IV (read-out: EndoIV IC50), < 4.24; at APE1 [6] (setting [10]), 4.97; on APE1 [9] (setting [12]), 5.40.

For the compound `COc1cc2c(ccc3cc(OC)c(OC)c(O)c32)cc1O` [MLS000863573], the “AP site levels, combination treatment versus MMS-alone” value in the assay with HeLa cells [1] is on record as “no statistical significance”. Moreover, at APE1 [2], the “Radiotracer Assay (%Activity)” value was 4%. Further, in the assay on HeLa cells [3], the “MMS Assay” value is given as “P”. For the same compound, the pIC50 in [4] was 4.95; against E. coli Endo IV, 5.05; at APE1 [6] (setting [10]), 6.15; on APE1 [6] (setting [11]), 6.22; on APE1 [7] (read-out: FP IC50) it was 4.90.

On to `COc1ccc2nc3cc(Cl)ccc3c(Nc3cc(CN4CCCC4)c(O)c(CN4CCCC4)c3)c2n1` [MLS001306480, pyronaridine, reference compound], for which, in the assay on HeLa cells [1], the “AP sites upon treatment with the inhibitor alone” value was “noticeable increase in AP sites”. Also, the “MMS Assay: potentiation of the genotoxic effect of methylmethane sulfonate” value in the assay with HeLa cells [3] is recorded as “P”. Also, the pIC50 in [4] was < 4.24; against E. coli Endo IV, 4.54; on APE1 [6] (setting [10]), 4.82; on APE1 [6] (setting [11]), 5.19; on APE1 [9] (entries 113-223: fluorophore detection, estimated IC50, read-out: Gel-based electrophoretic separation assay with fluorophore detection, estimated IC50 (column headed Radiotracer Assay (%Activity))), 4.90; at APE1 [7] (read-out: FP IC50), 4.49.

In the case of `COc1ccc(Cc2nnc(NC(=O)Cc3cccs3)s2)cc1OC` [MLS000115025], the “AP site levels, combination versus MMS-alone, repeat testing” value in the assay with HeLa cells [1] is “support the initially-observed enhancements”. In addition, in the assay with HeLa cells [1], the “AP site levels, combination treatment versus MMS-alone” value is given as “obscured by large standard deviations”. For the same compound, the “Radiotracer Assay (%Activity)” value at APE1 [2] is recorded as 48%. Also, the “MMS Assay” value with HeLa cells [3] is reported as “P”. For the same compound, the pIC50 in [4] was < 4.24; on E. coli Endo IV (read-out: EndoIV IC50), < 4.24; at APE1 [6] (setting [13]), 4.55; on APE1 [6] (setting [10]) it was 4.55; at APE1 [6] (setting [11]) it was 5.70; on APE1 [7] (read-out: FP IC50), < 4.24.
